Patent US20210205236A1, “THERAPEUTIC COMBINATIONS OF BOSWELLIA EXTRACT AND CANNABINOIDS” (priority 2018, published 2021)
Where two headings read alike, the source gives them in different places.

Key:
[1] = molecular target: T1, CB1 receptor (Homo sapiens, UniProt P21554); format: cell-based
T1 construct: expressed in transfected cells

[2] = molecular target: T1, CB1 receptor; experiment: cell-based; format: cell-based
[3] = THCA or THC 10 μM without AKBA, CP55940-induced activity = 100%
[4] = THCA or THC 10 μM without AKBA, Table 3 data re-expressed as fold change

T1 sequence (P21554 whole entry): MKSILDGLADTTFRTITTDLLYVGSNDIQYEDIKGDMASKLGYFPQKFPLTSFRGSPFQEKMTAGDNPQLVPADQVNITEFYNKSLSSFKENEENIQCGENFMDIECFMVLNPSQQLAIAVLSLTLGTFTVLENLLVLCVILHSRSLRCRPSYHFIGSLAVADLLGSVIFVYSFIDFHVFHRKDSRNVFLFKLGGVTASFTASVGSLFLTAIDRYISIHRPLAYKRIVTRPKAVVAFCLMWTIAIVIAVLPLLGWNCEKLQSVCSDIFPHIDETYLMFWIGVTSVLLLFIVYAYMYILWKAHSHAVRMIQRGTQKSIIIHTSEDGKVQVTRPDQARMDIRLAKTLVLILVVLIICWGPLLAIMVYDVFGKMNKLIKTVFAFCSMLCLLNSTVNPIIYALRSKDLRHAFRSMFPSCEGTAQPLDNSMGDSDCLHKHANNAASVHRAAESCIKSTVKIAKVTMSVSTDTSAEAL

## CCCCCCC(C)(C)c1ccc([C@@H]2C[C@H](O)CC[C@H]2CCCO)c(O)c1 [CP, CP-55940, reference compound]
[1]
  Experiment 1 Fold change: 2.5 Fold change
  Experiment 2 Fold change: 2.5 Fold change
  Experiment 3 Fold change: 2.5 Fold change
[2]
  Experiment 1 Fold change: 2.5 Fold change
  Experiment 2 Fold change: 2.5 Fold change
  Experiment 3 Fold change: 2.5 Fold change
[2]; read-out: Experiment 1 % of activity
  activity at […]: 100%
[2]; read-out: Experiment 2 % of activity
  activity at […]: 100%
[2]; read-out: Experiment 3 % of activity
  activity at […]: 100%

## CCCCCc1cc2c(c(O)c1C(=O)O)[C@@H]1C=C(C)CC[C@H]1C(C)(C)O2 [THCA, tetrahydrocannabinolic acid]
[1]; THCA or THC alone, 10 μM
  Conclusions: Is CB1R agonist effect observed?: Negative (Only treatments that the mean of three consecutive independent experiments shows a positive result: CB1R activity ≥ 2.5-fold increase or ≥ 4-fold increase are considered CB1R agonists or CB1R positive allosteric modulators)
  Experiment 1 Fold change: 1.2 Fold change
  Experiment 2 Fold change: 1.1 Fold change
  Experiment 3 Fold change: 0.8 Fold change
[2]; AKBA 50 and 100 μM, THCA 10 μM or CBD 1 μM
  Effect of cannabinoid on AKBA CB1R positive allosteric activity: reduced the AKBA allosteric activity
[2]; THCA or THC 10 μM without AKBA, % of activity data
  Conclusions: Is CB1R antagonist effect observed?: Negative (Only treatments that the mean of three consecutive independent experiments show a positive result (CB1R activity ≤ 50%) are considered antagonists of CB1R activity)
[2]; [3]
  Experiment 1 % of activity: 163.2%
  Experiment 2 % of activity: 118.4%
  Experiment 3 % of activity: 86.5%
[2]; [4]
  Experiment 1 Fold change: 4.1 Fold change
  Experiment 2 Fold change: 3.0 Fold change
  Experiment 3 Fold change: 2.2 Fold change
[2]; THCA or THC 10 μM without AKBA, positive allosteric activity, fold change data
  Conclusions: Is CB1R antagonist effect observed?: Negative (Only treatments that the mean of three consecutive independent experiments show a positive result (CB1R activity ≥ 4-fold change) are considered positive CB1R allosteric agonists)
